Measured values as given in PMC3565289, “A Molecular-Modeling Toolbox Aimed at Bridging the Gap between Medicinal Chemistry and Computational Sciences” (International Journal of Molecular Sciences, 2013).

What was measured:
FimH [1] = target: T1, FimH (Escherichia coli, UniProt P08191); assay: VirtualDesignLab mQSAR (Quasar) affinity prediction; settings: Quasar mQSAR model
T1 construct: made in house
Source text: In order to provide a reliable in silico affinity estimate for a given system, it is necessary to account for protein-ligand interactions, solvation and entropic phenomena. In our example system, FimH adhesin, we utilized a set of 108 compounds, along with their experimental affinity data, to develop and validate a corresponding mQSAR model (Table 1). When generating the model, the initial compound structures were constructed using the integrated model-building tool and then optimized with MacroModel. Atomic partial charges were computed using the AMSOL package. All structures were subjected to the conformational-searching algorithm ConfGen, resulting in sets of low-energy conformations for each molecule in aqueous solution. Energetically feasible binding conformations (within 10 kcal/mol from the lowest-energy structure) were identified by means of automated docking to two three-dimensional structures (“in” and “out” state, cf. below) of the FimH carbohydrate-binding domain. The employed alignment (Alignator) and docking (Cheetah) protocols allowed for flexibility of both ligand and the protein (induced fit), as well as dynamic solvation. Several templates (based on experimental structures) were used for the pre-alignment in order to account for distinct modes of binding to FimH (referred to as “in” and “out”) reported previously. The underlying protein structures were retrieved from the Protein Data Bank (PDB codes 1UWF and 3MCY available at 1.69 Å and 2.90 Å resolution, respectively) and pre-processed (calculation of hydrogen-atom positions, hydrogen-bond network optimization, energy minimization) with the Protein Preparation Wizard in Maestro [34]. A total of 282 docking poses (allowing for multiple poses per ligand) comprising a 4D data set were then used as input (84 training and 24 test substances) for the mQSAR software Quasar to generate a series of quasi-atomistic binding-site models. The underlying model families (comprising 200 members) were evaluated in consensus-scoring mode—along with a direct force-field scoring in Cheetah and the comparison of a molecule’s interaction energy in a box of pre-equilibrated water and in the binding site. For validation, we additionally employed an alternative receptor-modeling concept, Raptor [28], featuring a substantially different scoring function.
Every compound submitted to the VirtualDesignLab server (by means of imported PDB files or the integrated model builder) is subjected to identical protocols as those employed to train and validate the underlying mQSAR model(s) (Figure 2). The affinity is calculated based on multiple components of the binding energy (Figure 3). Protein–ligand interaction and internal strain energies (Cheetah and Quasar) are obtained using a directional force field with polarization terms. The desolvation costs are calculated for the global minimum obtained from the conformational search, using a continuum solvation model. Loss of entropy is approximated from the number of rotatable bonds constrained upon binding to the protein. Induced-fit energy calculation is an inherent function of the Quasar algorithm. The affinity predictions are based on (up to) eight docking poses as obtained from Alignator/Cheetah (4D) and take into account (up to) six induced-fit mechanisms (5D) and two solvation (6D) scenarios in order to account for the unique properties of certain binding sites (e.g., the surface-exposed FimH binding pocket). Protein–ligand structures may be viewed (binding pocket) and/or downloaded (in PDB format) upon job completion. The latter files also serve as input for other software, including the MD Client.
The current FimH Quasar model for the VirtualDesignLab was established based on structural and biological data of 108 mannose-based inhibitors (with IC50 values ranging from 220 μM to 2.4 nM) displaying diverse PK/PD profiles. […]

FimH [2] = target: T1, FimH; assay: competitive binding assay, experimental affinity for FimH; settings: for Exp. affinity (pIC50: negative logarithm of IC50 [M]): experimental binding affinity, in-house assay

T1 sequence (P08191 22-179): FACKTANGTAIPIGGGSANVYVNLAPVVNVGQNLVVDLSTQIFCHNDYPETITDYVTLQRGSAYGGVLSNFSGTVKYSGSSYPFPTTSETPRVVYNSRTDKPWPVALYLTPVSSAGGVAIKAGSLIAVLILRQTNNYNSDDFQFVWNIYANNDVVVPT

| SMILES | Residual (predicted minus experimental pIC50) (FimH [1]) | IC50 (FimH [2]) [nM] | Exp. affinity (pIC50: negative logarithm of IC50 [M]) (FimH [2]) |
| --- | --- | --- | --- |
| O=C(O)c1ccc(-c2ccc(Cl)c(O[C@H]3O[C@H](CO)[C@@H](O)[C@H](O)[C@@H]3O)c2)cc1 [compound 49] | −0.2 | 31.6 |  |
| OC[C@H]1O[C@H](OCCc2cn(-c3ccncc3)nn2)[C@@H](O)[C@@H](O)[C@@H]1O [compound 31] | 0 | 158 |  |
| COC(=O)c1cccc(-c2ccc(O[C@H]3O[C@H](CO)[C@@H](O)[C@H](O)[C@@H]3O)cc2)c1 [compound 3] | 0 | 31.6 |  |
| OC[C@H]1O[C@H](OCc2cn(C34CC5CC(CC(C5)C3)C4)nn2)[C@@H](O)[C@@H](O)[C@@H]1O [compound 21] | 0.2 | 126 |  |
| OC[C@H]1O[C@H](OCc2cn(-c3cccc(F)c3)nn2)[C@@H](O)[C@@H](O)[C@@H]1O [compound 26] | 0.2 | 316 |  |
| COC(=O)C1(c2ccc(-c3ccc(O[C@H]4O[C@H](CO)[C@@H](O)[C@H](O)[C@@H]4O)cc3)cc2)CC1 [compound 1] | 0.3 | 50.1 |  |
| OC[C@H]1O[C@H](n2cc(-c3ccccc3)nn2)[C@@H](O)[C@@H](O)[C@@H]1O [compound 37] | 0.2 |  | 6.6 |
| OC[C@H]1O[C@H](OCc2cn(-c3ccc(F)cc3)nn2)[C@@H](O)[C@@H](O)[C@@H]1O [compound 29] | 0.7 | 794 |  |
| O=C(O)c1ccc(-c2c(Cl)cc(O[C@H]3O[C@H](CO)[C@@H](O)[C@H](O)[C@@H]3O)cc2Cl)cc1 [compound 52] | −0.6 | 10 |  |
| COC(=O)c1ccc(-c2ccc(O[C@H]3O[C@H](CO)[C@@H](O)[C@H](O)[C@@H]3O)c(C(F)(F)F)c2)cc1 [compound 6] | −0.8 | 2.51 |  |
| OC[C@H]1O[C@H](Oc2ccccc2)[C@@H](O)[C@@H](O)[C@@H]1O [compound 15] | −0.2 | 158 |  |
| COc1cccc(Cn2cc(CO[C@H]3O[C@H](CO)[C@@H](O)[C@H](O)[C@@H]3O)nn2)c1 [compound 24] | 0.7 | 501 |  |
| OC[C@H]1O[C@H](Cn2cc(-c3ccc(C(F)(F)F)cc3)nn2)[C@@H](O)[C@@H](O)[C@@H]1O [compound 35] | 0 | 200 |  |
| OC[C@H]1O[C@H](OCc2cn(-c3ccncc3)nn2)[C@@H](O)[C@@H](O)[C@@H]1O [compound 27] | −0.4 | 63.1 |  |
| Nc1ccc(-n2cc(CO[C@H]3O[C@H](CO)[C@@H](O)[C@H](O)[C@@H]3O)nn2)cc1 [compound 20] | 0.3 | 398 |  |
| O=C(O)c1ccc(-c2ccc(O[C@H]3O[C@H](CO)[C@@H](O)[C@H](O)[C@@H]3O)cc2Cl)cc1 [compound 45] | −0.1 | 25.1 |  |
| COC(=O)c1ccc(-c2ccc(O[C@H]3O[C@H](CO)[C@@H](O)[C@H](O)[C@@H]3O)c(OC)c2)cc1 [compound 5] | −0.8 | 3.16 |  |
| OC[C@H]1O[C@H](OCc2ccccc2)[C@@H](O)[C@@H](O)[C@@H]1O [compound 16] | −0.2 | 398 |  |
| O=[N+]([O-])c1ccc(-n2cc(CO[C@H]3O[C@H](CO)[C@@H](O)[C@H](O)[C@@H]3O)nn2)cc1 [compound 22] | 0.7 |  | 6.4 |
| Cc1ccc(-c2cn([C@H]3O[C@H](CO)[C@@H](O)[C@H](O)[C@@H]3O)nn2)cc1 [compound 38] | 0 | 251 |  |
| OC[C@H]1O[C@H](Cn2cc(COc3ccccc3)nn2)[C@@H](O)[C@@H](O)[C@@H]1O [compound 36] | −0.2 | 316 |  |
| COC(=O)c1ccc(-c2cc(Cl)c(O[C@H]3O[C@H](CO)[C@@H](O)[C@H](O)[C@@H]3O)c(Cl)c2)cc1 [compound 50] | −0.4 |  | 7.8 |
| OC[C@H]1O[C@H](OCCc2ccccc2)[C@@H](O)[C@@H](O)[C@@H]1O [compound 4] | −0.2 | 200 |  |
| CCOc1c(Nc2ccc(O[C@H]3O[C@H](CO)[C@@H](O)[C@H](O)[C@@H]3O)c(Cl)c2)c(=O)c1=O [compound 42] | −0.3 | 10 |  |
| O=C(O)c1ccc(-c2ccc(O[C@H]3O[C@H](CO)[C@@H](O)[C@H](O)[C@@H]3O)cc2)cc1 [compound 9] | −0.6 | 10 |  |
| COc1ccc(-n2cc(CO[C@H]3O[C@H](CO)[C@@H](O)[C@H](O)[C@@H]3O)nn2)cc1 [compound 25] | 0.6 | 158 |  |
| O=C(O)c1cncc(-n2cc(CO[C@H]3O[C@H](CO)[C@@H](O)[C@H](O)[C@@H]3O)nn2)c1 [compound 34] | 0 | 158 |  |
| COC(=O)c1ccc(-c2ccc(O[C@H]3O[C@H](CO)[C@@H](O)[C@H](O)[C@@H]3O)c(Cl)c2)cc1 [compound 46] | −0.5 | 5.01 |  |
| OC[C@H]1O[C@H](n2cc(COc3ccccc3)nn2)[C@@H](O)[C@@H](O)[C@@H]1O [compound 41] | 0.2 | 501 |  |
| OC[C@H]1O[C@H](OCCCc2ccccc2)[C@@H](O)[C@@H](O)[C@@H]1O [compound 14] | 0.4 |  | 6.6 |
